By IC50 is commonly meant the midpoint of a concentration-inhibition curve.

The test system of experiment [1] is carrageenan-induced thermal hyperalgesia. Description: Carrageenan model, thermal hyperalgesia (Hargreaves' assay). Conditions: rat, 10 mg/kg s.c. 30 min prior to carrageenan, tested 2, 3 and 4 h post. It is filed as in vivo. The procedure:
Acute inflammatory hyperalgesia is induced in rats by unilateral injection of […] of a 3% solution of 1-carrageenan into the plantar surface of the left hind paw 2-4 h prior to testing. Thermal nociceptive thresholds are determined according to the method described elsewhere (Hargreaves et al., 1988). Briefly, through the glass surface, a radiant heat source (8 V, 50 W projector bulb) is focused onto the plantar surface of the hind paw. The rat's paw-withdrawal latency to this stimulus is recorded to the nearest 0.1 s. Each latency score is an average of three trials, which are separated by at least 5 min. In all rats, both the injured and uninjured hind paws are similarly tested, allowing direct comparisons between inflamed and non-inflamed paws.
FIG. 5 illustrates the effect of Compound 203 (10 mg/kg s.c.) on the thermal hyperalgesia (observed in the Hargreaves' assay) resulting from an acute paw inflammation caused by the intraplantar injection of 150 μl of a 3% solution of λ-carrageenan. Compound 203 was given 30 min prior to carrageenan injection and thermal hyperalgesia was tested 2, 3, and 4 h post carrageenan injection.

A further experiment concerns the target T1, ASIC1a (Homo sapiens, UniProt P78348).
T1 sequence (P78348 1-528): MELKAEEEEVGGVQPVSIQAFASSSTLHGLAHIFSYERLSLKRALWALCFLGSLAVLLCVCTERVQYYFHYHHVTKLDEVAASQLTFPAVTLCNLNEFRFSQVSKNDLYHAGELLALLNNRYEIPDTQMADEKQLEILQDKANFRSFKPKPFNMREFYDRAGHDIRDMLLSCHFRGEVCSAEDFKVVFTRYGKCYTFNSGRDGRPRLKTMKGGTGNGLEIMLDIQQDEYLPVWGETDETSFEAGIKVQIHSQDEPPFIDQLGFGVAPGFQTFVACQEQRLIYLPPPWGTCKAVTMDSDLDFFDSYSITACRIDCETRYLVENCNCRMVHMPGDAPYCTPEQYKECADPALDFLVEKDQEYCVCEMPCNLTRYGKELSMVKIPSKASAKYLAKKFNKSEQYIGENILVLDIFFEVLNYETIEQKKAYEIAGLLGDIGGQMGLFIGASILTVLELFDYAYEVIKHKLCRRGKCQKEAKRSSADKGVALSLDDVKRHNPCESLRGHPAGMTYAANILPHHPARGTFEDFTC
In words: Two-electrode voltage clamp in Xenopus laevis oocytes (Xo), acid-induced currents. Also on record: expressed in transfected cells; host or cells: Xenopus laevis oocytes (nuclear microinjection of expression vector such as pcDNA3). Conditions: for inhibition at 50 µM: Xenopus oocytes, read-out: % inh. at 50 μM (Xo). It is filed as cell-based. In a few lines:
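Defolliculated oocytes were nuclear-injected with channel cDNA and expressed for 2–4 days at 19 °C. Under two-electrode voltage clamp at room temperature, oocytes were superfused with pH 7.4 Ringer, and currents were evoked by switching to acidic MES Ringer (pH<7). Compound was present in both control and acidic solutions.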
Background: Two-electrode voltage clamp holds a large cell at a set potential and records current.

Read-outs that look alike come from different tables or passages of the source.

As for `CN1CCc2c(-c3ccccc3)cc(C#N)c(N)c2C1` [Compound 203, 8-Amino-2-methyl-5-phenyl-1,2,3,4-tetrahydro-isoquinoline-7-carbonitrile], the “Effect on thermal hyperalgesia” value in experiment [1] is reported as “reduced the thermal hyperalgesia to level not significant to the control paw”. In addition, at ASIC1a, inhibition was half-maximal at 6.2 µM (IC50) and the inhibition at 50 µM is greater than 70%.

Regarding `COc1ccc(F)cc1-c1cc(C#N)c(N)c2c1CCN(C)C2` [Compound 206, 8-Amino-5-(5-fluoro-2-methoxy-phenyl)-2-methyl-1,2,3,4-tetrahydro-isoquinoline-7-carbonitrile], the inhibition at 50 µM on ASIC1a was 50 to 70%. Also, the concentration for half-maximal inhibition (IC50) at ASIC1a (Xenopus laevis oocytes, three point dose-response, read-out: IC50, half maximal inhibition of the acid-evoked response in hASIC1a) is 34 µM.

Source of the values: US20080004272A1, “Compositions and methods for modulating gated ion channels” (PainCeptor Pharma Corporation, priority 2006, published 2008).
